Test results: patent publication US11453703B2, “Heterotandem bicyclic peptide complexes” (BicycleTX Limited, priority 2018, dated 2022)

Key:
[1] = molecular target: T1, human Nectin-4 protein (Homo sapiens, UniProt Q96NY8); experiment: Nectin-4 Biacore (SPR) binding assay; conditions: biotinylated human Nectin-4, 25° C.
T1 construct: Human Nectin-4 (residues Gly32-Ser349); host or cells: Sf21 insect cells (baculovirus, pFastbac-1)
T1 sequence (Q96NY8 32-349): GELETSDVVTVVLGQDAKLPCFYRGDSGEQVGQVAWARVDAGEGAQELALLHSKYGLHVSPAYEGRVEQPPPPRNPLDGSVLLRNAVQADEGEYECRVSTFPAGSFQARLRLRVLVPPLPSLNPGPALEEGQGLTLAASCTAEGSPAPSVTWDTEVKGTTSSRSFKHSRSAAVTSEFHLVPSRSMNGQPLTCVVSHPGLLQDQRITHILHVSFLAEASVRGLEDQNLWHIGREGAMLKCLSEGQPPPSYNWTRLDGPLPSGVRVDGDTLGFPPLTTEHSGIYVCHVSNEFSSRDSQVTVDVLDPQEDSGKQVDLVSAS
Protocol: Biacore experiments were performed to determine ka (M^−1s^−1), kd (s^−1), KD (nM) values of heterotandem peptides binding to human Nectin-4 protein (obtained from Charles River). Human Nectin-4 (residues Gly32-Ser349; NCBI RefSeq: NP_112178.2) with a gp67 signal sequence and C-terminal FLAG tag was cloned into pFastbac-1 and baculovirus made using standard Bac-to-Bac™ protocols (Life Technologies). Sf21 cells at 1×10^6 ml^−1 in Excell-420 medium (Sigma) at 27° C. were infected at an MOI of 2 with a P1 virus stock and the supernatant harvested at 72 hours. The supernatant was batch bound for 1 hour at 4° C. with Anti-FLAG M2 affinity agarose resin (Sigma) washed in PBS and the resin subsequently transferred to a column and washed extensively with PBS. The protein was eluted with 100 μg/ml FLAG peptide. The eluted protein was concentrated to 2 ml and loaded onto an S-200 Superdex column (GE Healthcare) in PBS at 1 ml/min. 2 ml fractions were collected and the fractions containing Nectin-4 protein were concentrated to 16 mg/ml.
The protein was extensively desalted to remove uncoupled biotin using spin columns into PBS.
For analysis of peptide binding, a Biacore 3000 instrument was used with a CM5 chip (GE Healthcare). Streptavidin was immobilized on the chip using standard amine-coupling chemistry at 25° C. with HBS-N (10 mM HEPES, 0.15 M NaCl, pH 7.4) as the running buffer. Briefly, the carboxymethyl dextran surface was activated with a 7 minute injection of a 1:1 ratio of 0.4 M 1-ethyl-3-(3-dimethylaminopropyl) carbodiimide hydrochloride (EDC)/0.1 M N-hydroxy succinimide (NHS) at a flow rate of 10 μl/min. For capture of streptavidin, the protein was diluted to 0.2 mg/ml in 10 mM sodium acetate (pH 4.5) and captured by injecting 120 μl of streptavidin onto the activated chip surface. Residual activated groups were blocked with a 7 minute injection of 1 M ethanolamine (pH 8.5) and biotinylated Nectin-4 captured to a level of 1,200-1,800 RU. Buffer was changed to PBS/0.05% Tween 20 and a dilution series of the peptides was prepared in this buffer with a final DMSO concentration of 0.5%. The top peptide concentration was 100 nM with 6 further 2-fold dilutions. The SPR analysis was run at 25° C. at a flow rate of 50 μl/min with 60 seconds association and dissociation between 400 and 1,200 seconds depending upon the individual peptide. Data were corrected for DMSO excluded volume effects. All data were double-referenced for blank injections and reference surface using standard processing procedures and data processing and kinetic fitting were performed using Scrubber software, version 2.0c (BioLogic Software). Data were fitted using simple 1:1 binding model allowing for mass transport effects where appropriate.

[2] = molecular target: T2, CD137 (Homo sapiens, UniProt Q07011); experiment: CD137 Biacore (SPR) binding assay; set-up: purchased R&D systems; conditions: biotinylated human CD137, 25° C.
How it was run: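 Biotinylated human CD137 captured (270-1500 RU) on streptavidin-coupled dextran chip; peptides up to 500 nM in PBS/0.05% Tween 20, 0.5% DMSO, at 25°C, 60 s association, 900 s dissociation. Double-referenced data fitted to 1:1 binding model, with mass transport where appropriate.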

[3] = molecular target: T2, CD137; experiment: CD137 reporter assay, co-culture with Nectin-4 tumour cells; assay type: cell-based; set-up: host or cells: Jurkat reporter cells; conditions: for Fold Induction over Background: tumour target Nectin4, co-culture with H1376, 6 h;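 on all read-outs here: jurkat reporter cells co-cultured with tumour cells and test article for 6 h, luminescence signal relative to Jurkat plus tumour cells lacking test article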

T2 sequence (Q07011 24-255): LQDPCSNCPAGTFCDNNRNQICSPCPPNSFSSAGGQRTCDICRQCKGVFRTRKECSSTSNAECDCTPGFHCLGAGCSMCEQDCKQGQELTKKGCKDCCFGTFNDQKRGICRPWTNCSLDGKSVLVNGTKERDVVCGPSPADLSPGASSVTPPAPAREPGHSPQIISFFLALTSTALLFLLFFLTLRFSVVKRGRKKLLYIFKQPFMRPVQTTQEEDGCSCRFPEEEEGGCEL

## CCCC[C@@H]1NC(=O)[C@H](Cc2ccc(O)cc2)NC(=O)[C@@H]2CCCN2C(=O)[C@H](CC(=O)O)NC(=O)[C@H](C)NC(=O)[C@H](Cc2ccccc2)NC(=O)[C@@H]2CSCCC(=O)N3CN(CN(C3)C(=O)CCSC[C@@H](C(=O)N[C@@H](CNC(=O)CCc3cn(CCCNC(=O)CN(C)C(=O)CN(C)C(=O)CN(C)C(=O)CN(C)C(=O)CN(C)C(=O)CN(C)C(=O)CN(C)C(=O)CN(C)C(=O)CN(C)C(=O)CN(C)C(=O)COCCOCCOCCOCCOCCOCCOCCOCCOCCOCCNC(=O)N[C@H]4CSCCC(=O)N5CN6CN(C5)C(=O)CCSC[C@H](NC(=O)[C@@H](CC(=O)O)NC(=O)[C@H](Cc5cccc7ccccc57)NC(=O)[C@@H]5CCCN5C4=O)C(=O)N[C@@H](CCSC)C(=O)N[C@@H](CCCCNC(=N)N)C(=O)N[C@@H](CC(=O)O)C(=O)N[C@@H](Cc4c[nH]c5ccccc45)C(=O)N[C@@H](CO)C(=O)N[C@@H]([C@@H](C)O)C(=O)N4CCC[C@H]4C(=O)N4C[C@H](O)C[C@H]4C(=O)N[C@@H](Cc4c[nH]c5ccccc45)C(=O)N[C@H](C(N)=O)CSCCC6=O)nn3)C(N)=O)NC1=O)C(=O)CCSC[C@H](NC(=O)[C@H](C)NC(C)=O)C(=O)N[C@@H]([C@@H](C)CC)C(=O)N[C@@H](CCC(=O)O)C(=O)N[C@@H](CCC(=O)O)C(=O)NCC(=O)N[C@@H](CCC(N)=O)C(=O)N[C@@H](Cc1ccc(O)cc1)C(=O)N2 [BCY9408]
[1]
  Kd: 1.57 nM
[2]
  Kd: 105 nM
[3]
  EC50: 1.1 nM
  Fold Induction over Background: 20 fold

## CCCC[C@@H]1NC(=O)[C@H](Cc2ccc(O)cc2)NC(=O)[C@@H]2CCCN2C(=O)[C@H](CC(=O)O)NC(=O)[C@H](C)NC(=O)[C@H](Cc2ccccc2)NC(=O)[C@@H]2CSCCC(=O)N3CN(CN(C3)C(=O)CCSC[C@@H](C(=O)N[C@@H](CNC(=O)CCc3cn(CCCNC(=O)CN(C)C(=O)CN(C)C(=O)CN(C)C(=O)CN(C)C(=O)CN(C)C(=O)CN(C)C(=O)CN(C)C(=O)CN(C)C(=O)CN(C)C(=O)CN(C)C(=O)CN(C)C(=O)CN(C)C(=O)CN(C)C(=O)CN(C)C(=O)CN(C)C(=O)COCCOCCOCCOCCOCCNC(=O)N[C@H]4CSCCC(=O)N5CN6CN(C5)C(=O)CCSC[C@H](NC(=O)[C@@H](CC(=O)O)NC(=O)[C@H](Cc5cccc7ccccc57)NC(=O)[C@@H]5CCCN5C4=O)C(=O)N[C@@H](CCSC)C(=O)N[C@@H](CCCCNC(=N)N)C(=O)N[C@@H](CC(=O)O)C(=O)N[C@@H](Cc4c[nH]c5ccccc45)C(=O)N[C@@H](CO)C(=O)N[C@@H]([C@@H](C)O)C(=O)N4CCC[C@H]4C(=O)N4C[C@H](O)C[C@H]4C(=O)N[C@@H](Cc4c[nH]c5ccccc45)C(=O)N[C@H](C(N)=O)CSCCC6=O)nn3)C(N)=O)NC1=O)C(=O)CCSC[C@H](NC(=O)[C@H](C)NC(C)=O)C(=O)N[C@@H]([C@@H](C)CC)C(=O)N[C@@H](CCC(=O)O)C(=O)N[C@@H](CCC(=O)O)C(=O)NCC(=O)N[C@@H](CCC(N)=O)C(=O)N[C@@H](Cc1ccc(O)cc1)C(=O)N2 [BCY9409]
[1]
  Kd: 1.66 nM
[2]
  Kd: 97.7 nM
[3]
  EC50: 1.2 nM
  Fold Induction over Background: 24 fold
